# Results reported in paper PMC7915275, “Mycobacterial and Human Ferrous Nitrobindins: Spectroscopic and Reactivity Properties” (International Journal of Molecular Sciences, 2021).
# Where two headings read alike, the source gives them in different places.
# Key:
# [1] = cited from earlier work
# [2] = system: Pc-Mb(II); design: method as in PMID 5800433; conditions: pH 7.0, 20.0 °C, temperature-jump method; cited from earlier work
# [3] = target: T1, Hs-Nb(II) (Homo sapiens, UniProt Q8WY91); assay: O2 dissociation from Hs-Nb(II)-O2 by oxygen pulse experiments; assay type: binding; conditions: Hs-Nb(II)-O2, pH 7.0, 25.0 °C
# T1 construct: Homo sapiens Nb (Hs-Nb) is the C-terminal domain of the THAP4 protein; made in house
# T1 sequence (Q8WY91 415-577 limits assumed): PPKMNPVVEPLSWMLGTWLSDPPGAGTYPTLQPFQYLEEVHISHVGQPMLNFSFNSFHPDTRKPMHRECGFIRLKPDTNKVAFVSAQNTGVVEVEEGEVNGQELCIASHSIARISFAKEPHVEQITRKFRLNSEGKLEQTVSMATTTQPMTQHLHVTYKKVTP
# Method: (§1) Kinetics of O2 dissociation from the transient Mt-Nb(II)-O2, At-Nb(II)-O2 and Hs-Nb(II)-O2 species were investigated spectrophotometrically at pH 7.0 (1.0 × 10^−1 M phosphate buffer) and 25.0 °C by oxygen pulse experiments. This type of reaction proceeds according to Scheme 6.
# (§2) The deoxygenation of Mt-Nb(II)-O2 and Hs-Nb(II)-O2 process was followed at 431 nm. Kinetics of Mt-Nb(II)-O2 and Hs-Nb(II)-O2 deoxygenation were analyzed according to Equation (1).
# (§3) Rapid-mixing experiments were carried out employing an SX18.MV stopped-flow apparatus (Applied Photophysics, Salisbury, UK) equipped with a diode array for spectra acquisition over a 1 ms time range; the light path of the observation chamber was 10 mm.
# [4] = target: T2, Mt-Nb(II) (Mycobacterium tuberculosis, UniProt P9WFG7); assay: O2 dissociation from Mt-Nb(II)-O2 by oxygen pulse experiments; assay type: binding; design: made in house; conditions: Mt-Nb(II)-O2, pH 7.0, 25.0 °C
# T2 sequence (P9WFG7 whole entry): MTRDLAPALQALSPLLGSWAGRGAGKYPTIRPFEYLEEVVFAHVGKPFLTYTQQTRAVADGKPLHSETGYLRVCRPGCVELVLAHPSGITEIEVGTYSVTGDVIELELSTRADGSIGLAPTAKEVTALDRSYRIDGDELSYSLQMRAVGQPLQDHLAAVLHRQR
# Method: as §1, §2, §3
# [5] = target: T3, At-Nb(II) (Arabidopsis thaliana, UniProt O64527); assay: O2 dissociation from At-Nb(II)-O2 by oxygen pulse experiments; assay type: binding; conditions: At-Nb(II)-O2, pH 7.0, 25.0 °C
# T3 construct: made in house
# T3 sequence (O64527 whole entry): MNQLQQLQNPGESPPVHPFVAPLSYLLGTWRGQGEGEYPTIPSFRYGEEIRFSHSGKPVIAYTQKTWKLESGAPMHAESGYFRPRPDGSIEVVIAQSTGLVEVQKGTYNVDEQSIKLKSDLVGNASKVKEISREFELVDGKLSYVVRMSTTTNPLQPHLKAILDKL
# Method: as §1, §2, §3
# [6] = target: T1, Hs-Nb(II); assay: CO rebinding to Hs-Nb(II) after nanosecond laser flash photolysis; assay type: binding
# Method: Kinetics were analyzed according to Scheme 3.
# [7] = target: T3, At-Nb(II); design: method as in PMID 19938152; conditions: pH 7.0, 20.0 °C, cited from earlier work
# [8] = system: Pc-Mb(II); assay: CO binding kinetics to Pc-Mb(II) (literature); design: species or system Physeter catodon
# [9] = system: Ec-Mb(II); conditions: cited from earlier work
# [10] = target: Rp-NP7(II); design: method as in PMID 22594621; conditions: pH 7.5, 20.0 °C, cited from earlier work
# [11] = target: T2, Mt-Nb(II); assay: CO rebinding to Mt-Nb(II) after nanosecond laser flash photolysis
# Source text: CO rebinding kinetics to Mt-Nb(II) and Hs-Nb(II) at pH 7.4 (5.0 × 10^−2 M phosphate buffer) was obtained using the second harmonic (532 nm) of a Q-switched Nd:YAG laser (Surelite I-10, Continuum, Santa Clara, CA, USA) and the cw output of a 150 W Xe arc lamp was used as probe beam to monitor absorbance changes at 436 nm.
# The CO adducts were obtained by equilibrating solutions in either 0.2 CO atm or 1.0 CO atm. The oxidation state, the molar fraction of ferrous carbonylated Nbs, and the Nb concentration were determined spectrophotometrically. Kinetics were analyzed according to Scheme 3.
# According to Scheme 3, there are two types of processes, namely the formation of the A state directly from state B, which is much faster and independent on the ligand concentration (geminate recombination), whose extent φgem depends on the relative rates kBA(L) and kBC(L) according to the following relationship (3) φgem= kBA(L)/(kBA(L)+kBC(L)) and the observed rate rgem corresponds to (4) rgem= kBA(L)+ kBC(L) the formation of state A from state C (through the transient formation of state B), which depends on the ligand concentration (bimolecular recombination) and it is characterized by the second-order rate rbim corresponding to (5) rbim= kCB(L) × φgem
# [12] = system: Pc-Mb(II); design: method as in PMID 2303446; conditions: pH 7.0, 20.0 °C, cited from earlier work
# [13] = system: Ec-Mb(II); assay: CO binding kinetics to Ec-Mb(II) (literature); design: species or system Equus caballus
# [14] = target: Rp-NP4(II); design: method as in PMID 22594621; conditions: pH 7.5, 20.0 °C, cited from earlier work
# [15] = target: T2, Mt-Nb(II); assay: CO binding to and dissociation from Mt-Nb(II) by rapid-mixing stopped-flow (incl. CO displacement by NO); design: made in house
# [16] = target: T1, Hs-Nb(II); assay: CO binding to and dissociation from Hs-Nb(II) by rapid-mixing stopped-flow (incl. CO displacement by NO); conditions: for kobs(CO): λ = 421 nm
# Method: Progress kinetic curves at selected wavelengths were analyzed according to Equation (1): (1) ODobs=OD0±∑i=1i−nΔODie^(−kit) where ODobs is the observed optical density at a selected wavelength and at a given time interval, OD0 is the optical density at t = 0, n is the number of exponentials, ΔODi is the optical density change associated to the exponential i, ki is the pseudo-first-order rate constant of the exponential i (i.e., kobs(CO)) and t is the time. Since data collection occurs on a logarithmic scale, experimental points in the first second represent the absolute majority (about 70 out of 100 points) of total collected ones.
# Values of the second-order rate constant for Mt-Nb(II)-CO and Hs-Nb(II)-CO formation (i.e., kon(CO)) and of the first-order rate constant for CO dissociation from Mt-Nb(II)-CO and Hs-Nb(II)-CO (i.e., koff(CO)) were obtained from the dependence of the pseudo-first-order rate constant for Mt-Nb(II) and Hs-Nb(II) carbonylation (i.e., kobs(CO)) on the ligand concentration (i.e., [CO]) according to Equation (2):kobs(CO) = kon(CO) × [CO] + koff(CO)(2)
# The values of the first-order rate constant for CO dissociation from Mt-Nb(II)-CO and Hs-Nb(II)-CO (i.e., for CO replacement by NO; koff(CO)) were also determined by mixing the Mt-Nb(II)-CO and Hs-Nb(II)-CO (final concentration, 2.0 × 10^−6 M to 5.0 × 10^−6 M; [CO] = 1.0 × 10^−4 M) solutions with the NO saturated solution (final concentration, […]), under anaerobic conditions (i.e., in the presence of 2.0 × 10^−3 M sodium dithionite), at pH 7.0 (1.0 × 10^−1 M phosphate buffer), and 25.0 °C; no gaseous phase was present. Kinetics of CO dissociation from Mt-Nb(II)-CO and Hs-Nb(II)-CO was recorded at 421 nm.
# The conversion of Mt-Nb(II)-CO and Hs-Nb(II)-CO to Mt-Nb(II)-NO and Hs-Nb(II)-NO, respectively, was analyzed in the framework of Scheme 2 [75]:
# The values of koff(CO) were determined from data analysis, according to Equation (1). The over 100-fold excess of NO over CO guarantees that the reaction proceeds rightward because kon(NO) × [NO] >> kon(CO) × [CO] [75].
# as §3, with “UK),” for “UK)”, “range (the” for “range; the”, “mm) and an SFM-20/MOS-200 rapid-mixing stopped-flow apparatus (BioLogic Science Instruments, Claix, France) (the light path of the observation chamber was 10 mm).” for “mm.”
# [17] = faster phase, Eyring plots 10.0-40.0 °C
# [18] = slower phase, Eyring plots 10.0-40.0 °C
compound,measurement,setting,value
O=O [O2],solubility in the aqueous buffered solution,"[1]; p = 760 mm Hg, T = 20.0 °C, phosphate buffer pH 7.0, reference not given",1250 µM
same,koff(O2),[2],10 s⁻¹
same,koff(O2),[3],19 s⁻¹
same,koff(O2),[4],11 s⁻¹
same,koff(O2),[5],6.8 s⁻¹
[C-]#[O+] [CO],rgem (CO geminate recombination rate),[6]; 25 °C,9e+07 s⁻¹
same,kBA(CO) ≈ rgem × φgem,[6]; Equation (3),≈ 4.5 × 10^6 s^−1
same,kBC(CO) ≈ rgem - kBA(CO),[6]; escape to solvent,≈ 8.5 × 10^7 s^−1
same,ΔH1^‡ bimolecular CO binding,[6]; [17],9.08 ± 0.96 kcal/mol
same,ΔG1^‡ bimolecular CO binding,"[6]; faster phase, at 20.0 °C",8.37 ± 2.87 kcal/mol
same,"geminate CO recombination, share of total amplitude of the rebinding process",[6]; laser photolysis,~ 5%
same,φgem (CO geminate rebinding),[6]; laser photolysis,≤ 0.05
same,ΔH2^‡ bimolecular CO binding,[6]; [18],9.08 ± 0.96 kcal/mol
same,ΔG2^‡ bimolecular CO binding,"[6]; slower phase, at 20.0 °C",10 ± 1.4 kcal/mol
same,Kd,[7]; read-out: K (=koff/kon) for CO,220 nM
same,koff(CO),[7],0.05 s⁻¹
same,kon(CO),[7],230000 M⁻¹ s⁻¹
same,activation free energy ΔG^‡ of CO binding,[8],9.49 kcal/mol
same,koff(CO),[9]; footnote not given,0.035 s⁻¹
same,kon(CO),"[9]; pH 7.0, 20.0 °C",500000 M⁻¹ s⁻¹
same,kon(CO),"[9]; pH 7.0, 25.0 °C",610000 M⁻¹ s⁻¹
same,Kd,[9]; read-out: K (=koff/kon) for CO,57 nM
same,solubility in the aqueous buffered solution,"[1]; p = 760.0 mm Hg, 20.0 °C, phosphate buffer pH 7.0",1030 µM
same,Kd,"[10]; read-out: K (=koff/kon) for CO, first value (30% phase)",0.088 nM
same,Kd,"[10]; read-out: K (=koff/kon) for CO, second value (70% phase) (converted)",0.015 nM
same,"koff(CO), 30% phase",[10],0.0044 s⁻¹
same,"koff(CO), 70% phase",[10],0.00076 s⁻¹
same,kon(CO),[10],5e+07 M⁻¹ s⁻¹
same,ΔH1^‡ bimolecular CO binding,[11]; [17],7.65 ± 0.48 kcal/mol
same,ΔG1^‡ bimolecular CO binding,"[11]; faster phase, at 20.0 °C",10 ± 0.72 kcal/mol
same,φgem (CO geminate rebinding),[11]; laser photolysis,≤ 0.05
same,ΔH2^‡ bimolecular CO binding,[11]; [18],8.6 ± 0.96 kcal/mol
same,ΔG2^‡ bimolecular CO binding,"[11]; slower phase, at 20.0 °C",10.5 ± 0.96 kcal/mol
same,kon(CO),[12]; rapid-mixing and laser photolysis,510000 M⁻¹ s⁻¹
same,Kd,[12]; read-out: K (=koff/kon) for CO,37 nM
same,koff(CO),[12],0.019 s⁻¹
same,activation free energy ΔG^‡ of CO binding,[13],9.37 kcal/mol
same,Kd,"[14]; read-out: K (=koff/kon) for CO, first value (77% phase)",0.22 nM
same,Kd,"[14]; read-out: K (=koff/kon) for CO, second value (23% phase)",0.22 nM
same,"koff(CO), 23% phase",[14],0.0041 s⁻¹
same,"koff(CO), 77% phase",[14],0.0097 s⁻¹
same,"kon(CO), 23% phase",[14],1.9e+07 M⁻¹ s⁻¹
same,"kon(CO), 77% phase",[14],4.5e+07 M⁻¹ s⁻¹
same,Kd,"[15]; Mt-Nb(II), pH 7.0, 25.0 °C, read-out: K (=koff/kon) for CO",63000 nM
same,kon(CO),"[15]; Mt-Nb(II), rapid-mixing, pH 7.0, 25.0 °C",55000 M⁻¹ s⁻¹
same,koff(CO),"[15]; Mt-Nb(II)-CO, pH 7.0, 25.0 °C",3.5 ± 0.5 s⁻¹
same,activation free energy ΔG^‡ of CO binding,"[15]; Mt-Nb, from CO binding rate constant",10.8 kcal/mol
same,kobs(CO),"[16]; Hs-Nb(II), [CO] = 2.1 × 10^−4 M, pH 7.0, 25.0 °C",(2.4 ± 0.3) × 10^1 s^−1
same,kobs(CO),"[16]; Hs-Nb(II), [CO] = 4.5 × 10^−5 M, pH 7.0, 25.0 °C",8.3 ± 0.9 s⁻¹
same,kobs(CO),"[16]; Hs-Nb(II), [CO] = 7.0 × 10^−5 M, pH 7.0, 25.0 °C",(1.1 ± 0.1) × 10^1 s^−1
same,Kd,"[16]; Hs-Nb(II), pH 7.0, 25.0 °C, read-out: K (=koff/kon) for CO",38000 nM
same,kon(CO),"[16]; Hs-Nb(II), rapid-mixing, pH 7.0, 25.0 °C",100000 M⁻¹ s⁻¹
same,koff(CO),"[16]; Hs-Nb(II)-CO, pH 7.0, 25.0 °C",3.8 ± 0.5 s⁻¹
same,activation free energy ΔG^‡ of CO binding,"[16]; Hs-Nb, from CO binding rate constant",10.4 kcal/mol
